Laboratory results: ChEMBL document CHEMBL1201862, “PubChem BioAssay data set” (2004)
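96-well plates; 48 h exposure; 5 concentrations. Endpoints by linear interpolation between flanking doses. Not reached: highest tested concentration assigned. GI50 = concentration required for 50% inhibition of growth.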 Calls of active or inactive are those of the source. Rule as the data show it: active = GI50 up to about 1.1 µM and inactive = higher.

Experiments:
Test in all cases: NCI-60 cell line screen, 48 h
[1] = test system: MDA-MB-231
[2] = test system: NCI-H226
[3] = test system: HCT-116
[4] = test system: SK-MEL-28
[5] = test system: Malme-3M
[6] = test system: MDA-MB-435
[7] = test system: HCT-15
[8] = test system: CAKI-1
[9] = test system: A549
[10] = test system: 786-0
[11] = test system: NCI-H522
[12] = test system: COLO 205
[13] = test system: SK-MEL-2
[14] = test system: A498
[15] = test system: NCI/ADR-RES
[16] = test system: DU-145
[17] = test system: MOLT-4
[18] = test system: SF-295
[19] = test system: SK-OV-3
[20] = test system: NCI-H460
[21] = test system: SNB-75
[22] = test system: M14
[23] = test system: EKVX
[24] = test system: HOP-62
[25] = test system: SNB-19
[26] = test system: BT-549
[27] = test system: HL-60
[28] = test system: MCF7
[29] = test system: UACC-62
[30] = test system: PC-3
[31] = test system: CCRF-CEM
[32] = test system: SW-620
[33] = test system: Hs-578T
[34] = test system: HT-29
[35] = test system: SK-MEL-5
[36] = test system: SN12C
[37] = test system: MDA-N
[38] = test system: SF-268
[39] = test system: OVCAR-3
[40] = test system: OVCAR-4
[41] = test system: HOP-92
[42] = test system: OVCAR-5
[43] = test system: T47D
[44] = test system: RPMI-8226
[45] = test system: OVCAR-8
[46] = test system: NCI-H23
[47] = test system: ACHN
[48] = test system: LOX IMVI
[49] = test system: RXF 393
[50] = test system: IGROV-1
[51] = test system: K562
[52] = test system: TK-10
[53] = test system: KM12
[54] = test system: UO-31
[55] = test system: U-251
[56] = test system: UACC-257
[57] = test system: HCC 2998
[58] = test system: SR

For NC(=O)c1ccc(C(=O)Nc2ccc([As](=O)(O)O)cc2)cc1, the GI50 [1] was > 100 µM (inactive), the GI50 [2] was > 100 µM (inactive) and the GI50 [3] was > 100 µM (inactive). The GI50 [4] was > 100 µM (inactive), the GI50 [5] was > 100 µM (inactive) and the GI50 [6] was > 100 µM (inactive). For the same compound, the GI50 [7] was > 100 µM, the GI50 [8] was > 100 µM (inactive) and the GI50 [9] was > 100 µM (inactive). The GI50 [10] was > 100 µM (inactive), the GI50 [11] was > 100 µM (inactive) and the GI50 [12] was > 100 µM (inactive). The GI50 [13] was > 100 µM (inactive), the GI50 [14] was > 100 µM (inactive) and the GI50 [15] was > 100 µM (inactive). For the same compound, the GI50 [16] was > 100 µM (inactive), the GI50 [17] was > 100 µM (inactive) and the GI50 [18] was > 100 µM (inactive). The GI50 [19] was > 100 µM (inactive), the GI50 [20] was > 100 µM (inactive) and the GI50 [21] was > 100 µM (inactive). For the same compound, the GI50 [22] was > 100 µM (inactive), the GI50 [23] was > 100 µM (inactive) and the GI50 [24] was > 100 µM (inactive). For the same compound, the GI50 [25] was > 100 µM (inactive), the GI50 [26] was > 100 µM (inactive) and the GI50 [27] was > 100 µM (inactive). The GI50 [28] was > 100 µM (inactive), the GI50 [29] was > 100 µM (inactive) and the GI50 [30] was > 100 µM (inactive). The GI50 [31] was > 100 µM (inactive), the GI50 [32] was > 100 µM (inactive) and the GI50 [33] was > 100 µM (inactive). The GI50 [34] was > 100 µM (inactive), the GI50 [35] was > 100 µM (inactive) and the GI50 [36] was > 100 µM (inactive). For the same compound, the GI50 [37] was > 100 µM (inactive), the GI50 [38] was > 100 µM (inactive) and the GI50 [39] was > 100 µM (inactive). For the same compound, the GI50 [40] was > 100 µM (inactive), the GI50 [41] was > 100 µM (inactive) and the GI50 [42] was > 100 µM (inactive). For the same compound, the GI50 [43] was > 100 µM (inactive), the GI50 [44] was > 100 µM (inactive) and the GI50 [45] was > 100 µM (inactive). The GI50 [46] was > 100 µM (inactive), the GI50 [47] was > 100 µM (inactive) and the GI50 [48] was > 100 µM (inactive). For the same compound, the GI50 [49] was > 100 µM (inactive), the GI50 [50] was > 100 µM (inactive) and the GI50 [51] was > 100 µM (inactive). For the same compound, the GI50 [52] was > 100 µM (inactive), the GI50 [53] was > 100 µM (inactive) and the GI50 [54] was > 100 µM (inactive). The GI50 [55] was > 100 µM (inactive).

C[C@@H]1C[C@H]2[C@@H]3CCC4=CC(=O)C=C[C@]4(C)[C@@]3(Cl)[C@@H](Cl)C[C@]2(C)[C@@]1(O)C(=O)COP(=O)(O)O was tested, and the GI50 [1] was > 100 µM (inactive), the GI50 [2] was > 100 µM (inactive) and the GI50 [3] was 89.3 µM (inactive). For the same compound, the GI50 [4] was > 100 µM (inactive), the GI50 [5] was > 100 µM (inactive) and the GI50 [6] was > 100 µM (inactive). The GI50 [7] was > 100 µM, the GI50 [8] was > 100 µM (inactive) and the GI50 [9] was > 100 µM (inactive). For the same compound, the GI50 [10] was 49.3 µM (inactive), the GI50 [11] was > 100 µM (inactive) and the GI50 [12] was > 100 µM (inactive). For the same compound, the GI50 [13] was > 100 µM (inactive), the GI50 [56] was > 100 µM (inactive) and the GI50 [14] was > 100 µM (inactive). For the same compound, the GI50 [16] was > 100 µM (inactive), the GI50 [17] was 22 µM (inactive) and the GI50 [18] was > 100 µM (inactive). The GI50 [19] was > 100 µM (inactive), the GI50 [21] was > 100 µM (inactive) and the GI50 [22] was > 100 µM (inactive). The GI50 [23] was > 100 µM (inactive), the GI50 [57] was > 100 µM (inactive) and the GI50 [24] was > 100 µM (inactive). The GI50 [25] was > 100 µM (inactive), the GI50 [26] was 52.1 µM (inactive) and the GI50 [28] was > 100 µM (inactive). The GI50 [29] was > 100 µM (inactive), the GI50 [30] was > 100 µM (inactive) and the GI50 [32] was > 100 µM (inactive). For the same compound, the GI50 [33] was > 100 µM (inactive), the GI50 [34] was > 100 µM (inactive) and the GI50 [35] was > 100 µM (inactive). The GI50 [36] was 17.6 µM (inactive), the GI50 [37] was 56.2 µM (inactive) and the GI50 [38] was > 100 µM (inactive). For the same compound, the GI50 [39] was > 100 µM (inactive), the GI50 [40] was > 100 µM (inactive) and the GI50 [41] was > 100 µM (inactive). For the same compound, the GI50 [42] was > 100 µM (inactive), the GI50 [43] was > 100 µM (inactive) and the GI50 [44] was 0.0128 µM (active). The GI50 [58] was 11.4 µM (inactive), the GI50 [45] was > 100 µM (inactive) and the GI50 [46] was > 100 µM (inactive). For the same compound, the GI50 [47] was > 100 µM (inactive), the GI50 [48] was > 100 µM (inactive) and the GI50 [49] was > 100 µM (inactive). For the same compound, the GI50 [50] was > 100 µM (inactive), the GI50 [51] was 7.41 µM (inactive) and the GI50 [52] was > 100 µM (inactive). For the same compound, the GI50 [53] was > 100 µM (inactive), the GI50 [54] was > 100 µM (inactive) and the GI50 [55] was > 100 µM (inactive).
